Square brackets hold non-standard residues; d marks the D form. Peptide text beside a SMILES is read from it. βAla = NCCC(=O)O

For series [1], the target named is T1, human calcium-sensing receptor (CaSR) (Homo sapiens, UniProt P41180).
T1 construct: expressed in transfected cells; host or cells: HEK 293T cells, transiently transfected (lipofectamine 2000); in some cases HEK293 cells stably transfected
T1 sequence (P41180 20-1078): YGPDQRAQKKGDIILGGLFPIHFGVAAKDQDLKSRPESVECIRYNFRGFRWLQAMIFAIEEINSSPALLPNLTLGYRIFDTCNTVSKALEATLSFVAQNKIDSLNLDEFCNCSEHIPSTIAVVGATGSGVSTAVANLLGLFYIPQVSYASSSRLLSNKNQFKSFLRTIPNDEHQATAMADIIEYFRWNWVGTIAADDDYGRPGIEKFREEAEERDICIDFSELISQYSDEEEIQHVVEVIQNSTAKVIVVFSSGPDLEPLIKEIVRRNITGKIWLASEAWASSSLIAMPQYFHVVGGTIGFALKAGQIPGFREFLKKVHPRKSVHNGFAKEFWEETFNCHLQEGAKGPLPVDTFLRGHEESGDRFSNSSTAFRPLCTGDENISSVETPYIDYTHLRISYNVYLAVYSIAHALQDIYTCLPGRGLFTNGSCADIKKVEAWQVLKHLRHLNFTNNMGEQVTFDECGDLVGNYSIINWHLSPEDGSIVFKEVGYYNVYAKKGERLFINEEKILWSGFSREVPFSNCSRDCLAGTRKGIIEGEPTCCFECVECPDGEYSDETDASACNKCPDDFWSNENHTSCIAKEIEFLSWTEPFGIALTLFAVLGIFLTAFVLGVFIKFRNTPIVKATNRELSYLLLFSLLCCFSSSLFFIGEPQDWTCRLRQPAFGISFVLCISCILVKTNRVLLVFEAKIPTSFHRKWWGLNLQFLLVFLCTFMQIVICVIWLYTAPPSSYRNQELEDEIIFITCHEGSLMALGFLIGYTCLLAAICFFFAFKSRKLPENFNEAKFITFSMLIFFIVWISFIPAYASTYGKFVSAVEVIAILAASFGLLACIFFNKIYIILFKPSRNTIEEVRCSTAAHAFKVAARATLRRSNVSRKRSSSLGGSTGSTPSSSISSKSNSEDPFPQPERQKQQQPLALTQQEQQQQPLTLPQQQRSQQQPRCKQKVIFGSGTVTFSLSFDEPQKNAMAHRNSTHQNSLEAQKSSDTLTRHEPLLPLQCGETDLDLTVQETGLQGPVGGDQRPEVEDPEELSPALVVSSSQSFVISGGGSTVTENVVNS
The series can be described thus: In vitro cell assay in HEK-293 expressing the human calcium-sensing receptor (IP1 production). It is filed as cell-based. To be noted: for EC50: Table 5, IP1 production in HEK293 cells expressing human CaSR, eight concentrations in duplicate, read-out: EC50 in CaSR in vitro assay. The protocol:
The activity of a variety of peptides and conjugates was tested against the human CaSR. These studies were conducted by measuring IP1 production in HEK293 cells that express the human CaSR. Each peptide was tested in eight different concentrations, in duplicates, to establish a dose response curve. Curve fitting was performed using GraphPad Prism. In Table 5, and throughout the specification, residues provided in capital letters are L-amino acids, while lower case letters indicate D-amino acids. “Ac” indicates an acetyl capping group, “NH2” indicates an amide capping group, “Ac-bAla” is an acetylated beta-alanine, “GSH” indicates reduced glutathione, “GS” indicates oxidized glutathione, “PEG” refers to polyethylene glycol, “PEG2” and “PEGS” refer to polyethylene glycol moieties of 2 kDa and 5 kDa, respectively, and “Mpa” refers to mercaptopropionic acid.
The day after, these cells were transfected with human CaSR receptor using lipofectamine 2000 transfection reagent 24 hrs post transfection, cells were seeded in 384 well plates at 8,000 cells/well. […] In some cases, EC50 values were determined by measuring inositol monophosphate production in the HEK293 cells, stably transfected with the human calcium-sensing receptor (see Table 1).
Cells were incubated with compounds at various concentrations (1 mM or 300 μM as the highest and further ½ log serial dilutions) at 37° C. for 1.5 hrs before reaction termination. […] In brief, incubation with the compound was terminated by sequentially adding D2 labeled-IP1 and cryptate-labeled anti-IP1 in lysis buffer and further incubating at room temperature for 60 minutes. […] Non-transfected 293 cells were used as negative control.
IP1 concentrations were calculated from standard curves (generated with Graph Pad Prism ver. 4) using known concentrations of IP1 standards.

A further series relates to plasma PTH. The series can be described thus: In vivo PTH lowering after IV bolus in isoflurane-anesthetized normal Sprague Dawley rats. Also noted: species or system rat. To be noted: for 0.5 mg/kg IV bolus % PTH AUC of saline control: normal rats, AUC 1-4 h. Put shortly: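 Peptides were given as a 0.5 mg/kg IV bolus to normal Sprague Dawley rats kept under isoflurane throughout, with saline bolus controls.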

Series [2] deals with rat peritoneal mast cells. The series can be described thus: In vitro histamine induction in rat peritoneal mast cells. It is filed as cell-based. Summed up: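 Mast cells from peritoneal lavage of Sprague Dawley rats were incubated with compound at 10 μM for 15 min at 37 °C in HBSS + 25 mM HEPES pH 7.4. Supernatant histamine measured by EIA; response expressed as fold change versus pre-incubation levels.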

As for `CC(=O)N[C@H](C)C(=O)N[C@H](CCCNC(=N)N)C(=O)N[C@H](CCCNC(=N)N)C(=O)N[C@H](CCCNC(=N)N)C(=O)N[C@H](C)C(=O)N[C@H](CCCNC(=N)N)C(N)=O` [SEQ ID NO: 29, Ac-arrrar-NH2] (Ac-[dA][dR][dR][dR][dA][dR]-NH2), in series [1] (HEK-293 cell assay), the “potency to activate the human CaSR in vitro” value is on record as “dramatically reduced the ability of the compound to activate the CaSR”. Moreover, the EC50 in series [1] was greater than 1000 µM. For the same compound, the “PTH-lowering activity in normal rats” value in the series with plasma PTH (9 mg/kg IV bolus, FIG. 2B) is on record as “did not reduce PTH concentration”.

Regarding `CC(=O)NCCC(=O)N[C@H](CS)C(=O)N[C@H](CCCNC(=N)N)C(=O)N[C@H](CCCNC(=N)N)C(=O)N[C@H](CCCNC(=N)N)C(=O)N[C@H](CCCNC(=N)N)C(=O)N[C@H](CCCNC(=N)N)C(=O)N[C@H](CCCNC(=N)N)C(N)=O` [SEQ ID NO: 30, Ac-bAla-crrrrrr-NH2] (Ac-[βAla][dC][dR][dR][dR][dR][dR][dR]-NH2), the EC50 in series [1] came out at 1 µM. For the same compound, the “0.5 mg/kg IV bolus % PTH AUC of saline control” value (shortened to “0.5 mg/kg IV bolus % PTH AUC”) in the series on plasma PTH (Table 3) turned out to be 0%.

For the compound `CC(=O)N[C@H](CCS)C(=O)N[C@H](CCCNC(=N)N)C(=O)N[C@H](CCCNC(=N)N)C(=O)N[C@H](CCCNC(=N)N)C(=O)N[C@H](CCCNC(=N)N)C(=O)N[C@H](CCCNC(=N)N)C(=O)N[C@H](CCCNC(=N)N)C(N)=O` [SEQ ID NO: 32, Ac-dHcy-rrrrrr-NH2], the EC50 in series [1] is 2 µM. For the same compound, the “0.5 mg/kg IV bolus % PTH AUC” value in the series with plasma PTH (Table 3) was found to be 21%.

On to `CC(=O)N[C@H](CS)C(=O)N[C@H](Cc1ccc(O)cc1)C(=O)NCC(=O)N[C@H](CCCNC(=N)N)C(=O)N[C@H](CCCCN)C(=O)N[C@H](CCCCN)C(=O)N[C@H](CCCNC(=N)N)C(=O)N[C@H](CCCNC(=N)N)C(=O)N[C@H](CCC(N)=O)C(=O)N[C@H](CCCNC(=N)N)C(=O)N[C@H](CCCNC(=N)N)C(=O)N[C@H](CCCNC(=N)N)C(N)=O` [SEQ ID NO: 50, Ac-cygrkkrrqrrr-NH2], for which, in series [1], the EC50 was 2 µM.

Consider `CC(=O)N[C@H](CSSCCC(=O)O)C(=O)N[C@H](C)C(=O)N[C@H](CCCNC(=N)N)C(=O)N[C@H](CCCNC(=N)N)C(=O)N[C@H](CCCNC(=N)N)C(=O)N[C@H](C)C(=O)N[C@H](CCCNC(=N)N)C(N)=O` [SEQ ID NO: 56, Ac-c(Mpa)arrrar-NH2], for which the EC50 in series [1] was found to be 21 µM. The “0.5 mg/kg IV bolus % PTH AUC” value in the series with plasma PTH (Table 8) was 25%.

As for `CC(=O)N[C@H](CS)C(=O)N[C@@H](C(=O)N[C@H](CCCNC(=N)N)C(=O)N[C@H](CCCNC(=N)N)C(=O)N[C@H](CCCNC(=N)N)C(=O)N[C@@H](C(=O)N[C@H](CCCNC(=N)N)C(N)=O)C(C)C)C(C)C` [SEQ ID NO: 65, Ac-cvrrrvr-NH2] (Ac-[dC][dV][dR][dR][dR][dV][dR]-NH2), the EC50 in series [1] amounted to 35 µM.

`CC(=O)N[C@H](CS)C(=O)N[C@H](CCC(=O)O)C(=O)N[C@H](CCCNC(=N)N)C(=O)N[C@H](CCCNC(=N)N)C(=O)N[C@H](CCCNC(=N)N)C(=O)N[C@H](C)C(=O)N[C@H](CCCNC(=N)N)C(N)=O` [SEQ ID NO: 69, Ac-cerrrar-NH2] (Ac-[dC][dE][dR][dR][dR][dA][dR]-NH2): in series [1], the EC50 stood at 31 µM. Moreover, the “0.5 mg/kg IV bolus % PTH AUC” value with plasma PTH (Table 6) is 103%.

As to `CC(=O)N[C@H](CS)C(=O)N[C@H](C)C(=O)N[C@H](CCCCN)C(=O)N[C@H](CCCNC(=N)N)C(=O)N[C@H](CCCNC(=N)N)C(=O)N[C@H](C)C(=O)N[C@H](CCCNC(=N)N)C(N)=O` [SEQ ID NO: 72, Ac-cakrrar-NH2] (Ac-[dC][dA][dK][dR][dR][dA][dR]-NH2), the EC50 in series [1] worked out at 35 µM. In series [2], the “Histamine in vitro Fold change of non-treated at 10 uM” value stood at 1.1 fold.

On to `CC(=O)N[C@H](CS)C(=O)N[C@H](C)C(=O)N[C@H](CCCNC(=N)N)C(=O)N[C@H](CCCCN)C(=O)N[C@H](CCCNC(=N)N)C(=O)N[C@H](C)C(=O)N[C@H](CCCNC(=N)N)C(N)=O` [SEQ ID NO: 73, Ac-carkrar-NH2] (Ac-[dC][dA][dR][dK][dR][dA][dR]-NH2), for which the EC50 in series [1] was found to be 31 µM. Further, the “Histamine in vitro Fold change of non-treated at 10 uM” value in series [2] came to 1.4 fold.

As to `CC(=O)N[C@H](CS)C(=O)N[C@H](C)C(=O)N[C@H](CCCNC(=N)N)C(=O)N[C@H](CCCNC(=N)N)C(=O)N[C@H](CCCNC(=N)N)C(=O)N[C@H](C)C(=O)N[C@H](CCCNC(=N)N)C(=O)O` [SEQ ID NO: 74, Ac-carrrar-OH], the EC50 in series [1] was 31 µM.

On to `CC(=O)N[C@H](CS)C(=O)N[C@H](C)C(=O)N[C@H](C)C(=O)N[C@H](CCCNC(=N)N)C(=O)N[C@H](CCCNC(=N)N)C(=O)N[C@H](CCCNC(=N)N)C(=O)N[C@H](CCCNC(=N)N)C(=O)N[C@H](CCCNC(=N)N)C(=O)N[C@H](CCCNC(=N)N)C(N)=O` [SEQ ID NO: 76, Ac-caarrrrrr-NH2] (Ac-[dC][dA][dA][dR][dR][dR][dR][dR][dR]-NH2), for which the EC50 in series [1] was found to be 4.5 µM.

As to `CC(=O)N[C@H](CS)C(=O)N[C@H](C)C(=O)N[C@H](CCCNC(=N)N)C(=O)N[C@H](C)C(=O)N[C@H](CCCNC(=N)N)C(=O)N[C@H](C)C(=O)N[C@H](CCCNC(=N)N)C(=O)N[C@H](C)C(=O)N[C@H](CCCNC(=N)N)C(N)=O` [SEQ ID NO: 78, Ac-carararar-NH2] (Ac-[dC][dA][dR][dA][dR][dA][dR][dA][dR]-NH2), the EC50 in series [1] worked out at 5.3 µM.

`CC(=O)N[C@H](CS)C(=O)N[C@H](C)C(=O)N[C@H](CCCNC(=N)N)C(=O)N[C@H](CCCNC(=N)N)C(=O)N[C@H](CCCNC(=N)N)C(=O)N[C@H](C)C(=O)N[C@H](CCCNC(=N)N)C(=O)N[C@H](C)C(=O)N[C@H](CCCNC(=N)N)C(N)=O` [SEQ ID NO: 79, Ac-carrrarar-NH2] (Ac-[dC][dA][dR][dR][dR][dA][dR][dA][dR]-NH2): the EC50 in series [1] is 13 µM.

Turning to `N=C(N)NCCC[C@@H](NC(=O)[C@@H](CCCNC(=N)N)NC(=O)[C@@H](CCCNC(=N)N)NC(=O)[C@@H](CCCNC(=N)N)NC(=O)[C@@H](CCCNC(=N)N)NC(=O)[C@@H](CCCNC(=N)N)NC(=O)[C@H](N)CS)C(N)=O` [SEQ ID NO: 80, crrrrrr-NH2], the EC50 in series [1] worked out at 1.1 µM.

“Ac-c(PEG2-C)arrrar-NH2 (XXXXXXX; D-residues) [SEQ ID NO: 57]”: in series [1], the EC50 was 2.3 µM.

As for “Ac-c(PEG2-C)rrrrrr-NH2 (XXXXXXX; D-residues) [SEQ ID NO: 59]”, the EC50 in series [1] was 0.02 µM.

These data come from patent US10280198B2, “Therapeutic agents for reducing parathyroid hormone levels” (KAI PHARMACEUTICALS, INC., priority 2009, dated 2019).
